How the values were obtained:
[1] = tested on: anti-Aβ antibodies in sera from vaccinated baboons; experiment: Epitope mapping, 10-mer peptide-based ELISA with sera from vaccinated baboons; settings: peptide as plate coating
Method: Fine specificity analyses of anti-Aβ antibodies in immunized hosts or vaccines were determined by epitope mapping.
These nested peptides were used individually to coat microtiter wells as solid-phase immunoadsorbents for ELISA tests. The positive control ELISA plate was coated with Aβ1-28. They were tested for antibody binding with the sera from the four immunized baboons, from weeks 0, 10, 84 and 111. Baboon sera were serially diluted and assayed on plates coated with a 10-mer peptide at 5 ug/mL.

[2] = tested on: anti-Aβ antibodies in macaque antisera; experiment: Specificity analysis (10-mer peptide ELISA) of antisera from Cynomolgus macaques; type: binding
[3] = tested on: anti-Aβ antibodies in sera of vaccinated patients; experiment: Epitope mapping, competitive binding inhibition EIA with patient sera (10-mer peptides, IC50); parameters: species or system human; Epitope mapping, fine specificity analysis, serum of subject P210: unit not given here; settings: for Epitope mapping, fine specificity analysis, serum of subject P101: serum 16 wpi of vaccinated patient P101; for Epitope mapping, fine specificity analysis, serum of subject P102: serum 16 wpi of vaccinated patient P102; for Epitope mapping, fine specificity analysis, serum of subject P103: serum 16 wpi of vaccinated patient P103; for Epitope mapping, fine specificity analysis, serum of subject P104: serum 16 wpi of vaccinated patient P104; for Epitope mapping, fine specificity analysis, serum of subject P105: serum 16 wpi of vaccinated patient P105; for Epitope mapping, fine specificity analysis, serum of subject P106: serum 16 wpi of vaccinated patient P106; for Epitope mapping, fine specificity analysis, serum of subject P107: serum 16 wpi of vaccinated patient P107; for Epitope mapping, fine specificity analysis, serum of subject P108: serum 16 wpi of vaccinated patient P108; for Epitope mapping, fine specificity analysis, serum of subject P109: serum 16 wpi of vaccinated patient P109; for Epitope mapping, fine specificity analysis, serum of subject P201: serum 16 wpi of vaccinated patient P201; for Epitope mapping, fine specificity analysis, serum of subject P202: serum 16 wpi of vaccinated patient P202; for Epitope mapping, fine specificity analysis, serum of subject P203: serum 16 wpi of vaccinated patient P203; for Epitope mapping, fine specificity analysis, serum of subject P204: serum 16 wpi of vaccinated patient P204; for Epitope mapping, fine specificity analysis, serum of subject P205: serum 16 wpi of vaccinated patient P205; for Epitope mapping, fine specificity analysis, serum of subject P206: serum 16 wpi of vaccinated patient P206; for Epitope mapping, fine specificity analysis, serum of subject P207: serum 16 wpi of vaccinated patient P207; for Epitope mapping, fine specificity analysis, serum of subject P208: serum 16 wpi of vaccinated patient P208; for Epitope mapping, fine specificity analysis, serum of subject P209: serum 16 wpi of vaccinated patient P209; for Epitope mapping, fine specificity analysis, serum of subject P210: serum 16 wpi of vaccinated patient P210
[4] = antisera of macaques given UBI AD Vaccine 150 μg/dose, 9 WPI
[5] = antisera of macaques given UBI AD Vaccine 150 μg/dose, 15 WPI
[6] = antisera of macaques given UBI AD Vaccine 750 μg/dose, 9 WPI
[7] = antisera of macaques given UBI AD Vaccine 750 μg/dose, 15 WPI

| Substance | ELISA Titer titers (Log10) ([1]; 0 weeks post immunization) | ELISA Titer titers (Log10) ([1]; 10 weeks post immunization) | ELISA Titer titers (Log10) ([1]; 84 weeks post immunization) | ELISA Titer titers (Log10) ([1]; 111 weeks post immunization) | Reactivity of antisera with peptide (specificity analysis ELISA) [2, 4] | Reactivity of antisera with peptide (specificity analysis ELISA) [2, 5] | Reactivity of antisera with peptide (specificity analysis ELISA) [2, 6] | Reactivity of antisera with peptide (specificity analysis ELISA) [2, 7] | Epitope mapping, fine specificity analysis, serum of subject P101 [3] | Epitope mapping, fine specificity analysis, serum of subject P102 [3] | Epitope mapping, fine specificity analysis, serum of subject P103 [3] | Epitope mapping, fine specificity analysis, serum of subject P104 [3] | Epitope mapping, fine specificity analysis, serum of subject P105 [3] | Epitope mapping, fine specificity analysis, serum of subject P106 [3] | Epitope mapping, fine specificity analysis, serum of subject P107 [3] | Epitope mapping, fine specificity analysis, serum of subject P108 [3] | Epitope mapping, fine specificity analysis, serum of subject P109 [3] | Epitope mapping, fine specificity analysis, serum of subject P201 [3] | Epitope mapping, fine specificity analysis, serum of subject P202 [3] | Epitope mapping, fine specificity analysis, serum of subject P203 [3] | other results |
| --- | --- | --- | --- | --- | --- | --- | --- | --- | --- | --- | --- | --- | --- | --- | --- | --- | --- | --- | --- | --- | --- |
| 19 (FRHDSGYEVH) [Peptide 19] | 0.20 Log10 | 0.40 Log10 | 0.22 Log10 | 0.30 Log10 |  |  |  |  |  |  |  |  |  |  |  |  |  |  |  |  |  |
| 20 (RHDSGYEVHH) [Peptide 20] | 0.23 Log10 | 0.34 Log10 | 0.27 Log10 | 0.41 Log10 |  |  |  |  |  |  |  |  |  |  |  |  |  |  |  |  |  |
| 21 (HDSGYEVHHQ) [Peptide 21] | 0.21 Log10 | 0.40 Log10 | 0.18 Log10 | 1.14 Log10 |  |  |  |  |  |  |  |  |  |  |  |  |  |  |  |  |  |
| 22 (DSGYEVHHQK) [Peptide 22] | 0.32 Log10 | 0.78 Log10 | 0.64 Log10 | 0.76 Log10 |  |  |  |  |  |  |  |  |  |  |  |  |  |  |  |  |  |
| 23 (SGYEVHHQKL) [Peptide 23] | 0.13 Log10 | 0.49 Log10 | 0.51 Log10 | 0.78 Log10 |  |  |  |  |  |  |  |  |  |  |  |  |  |  |  |  |  |
| 24 (GYEVHHQKLV) [Peptide 24] | 0.13 Log10 | 0.27 Log10 | 0.19 Log10 | 0.12 Log10 |  |  |  |  |  |  |  |  |  |  |  |  |  |  |  |  |  |
| 25 (YEVHHQKLVF) [Peptide 25] | 0.16 Log10 | 0.43 Log10 | 0.15 Log10 | 0.22 Log10 |  |  |  |  |  |  |  |  |  |  |  |  |  |  |  |  |  |
| 25 (YEVHHQKLVF; PEPTIDE (1)..(10) Abeta 10-19 or APP 770(Y681-F690); listed as Homo sapiens) [compound 25] |  |  |  |  | 0.092 | 0.069 | 0.069 | 0.058 | 0 | 0 | 0 | 0 | 0 | 0 | 0 | 0 | 0 | 0 | 0 | 0 | Epitope mapping, fine specificity analysis, serum of subject P204 [3]: 0; Epitope mapping, fine specificity analysis, serum of subject P205 [3]: 0; Epitope mapping, fine specificity analysis, serum of subject P206 [3]: 0; Epitope mapping, fine specificity analysis, serum of subject P207 [3]: 10; Epitope mapping, fine specificity analysis, serum of subject P208 [3]: 0; Epitope mapping, fine specificity analysis, serum of subject P209 [3]: 0; Epitope mapping, fine specificity analysis, serum of subject P210 [3]: 0 |
| 28 (HHQKLVFFAE; PEPTIDE (1)..(10) Abeta 13-22 or APP 770(H684-E693); listed as Homo sapiens) [compound 28] |  |  |  |  | 0.044 | 0.052 | 0.046 | 0.032 | 0 | 0 | 0 | 0 | 0 | 0 | 0 | 0 | 0 | 0 | 0 | 0 | Epitope mapping, fine specificity analysis, serum of subject P204 [3]: 0; Epitope mapping, fine specificity analysis, serum of subject P205 [3]: 0; Epitope mapping, fine specificity analysis, serum of subject P206 [3]: 0; Epitope mapping, fine specificity analysis, serum of subject P207 [3]: 0; Epitope mapping, fine specificity analysis, serum of subject P208 [3]: 0; Epitope mapping, fine specificity analysis, serum of subject P209 [3]: 0; Epitope mapping, fine specificity analysis, serum of subject P210 [3]: 0 |
| 29 (HQKLVFFAED; PEPTIDE (1)..(10) Abeta 14-23 or APP 770(H685-D694); listed as Homo sapiens) [compound 29] |  |  |  |  | 0.050 | 0.058 | 0.047 | 0.050 | 0 | 0 | 0 | 0 | 0 | 0 | 0 | 0 | 0 | 0 | 0 | 0 | Epitope mapping, fine specificity analysis, serum of subject P204 [3]: 0; Epitope mapping, fine specificity analysis, serum of subject P205 [3]: 0; Epitope mapping, fine specificity analysis, serum of subject P206 [3]: 0; Epitope mapping, fine specificity analysis, serum of subject P207 [3]: 0; Epitope mapping, fine specificity analysis, serum of subject P208 [3]: 0; Epitope mapping, fine specificity analysis, serum of subject P209 [3]: 0; Epitope mapping, fine specificity analysis, serum of subject P210 [3]: 0 |
| 30 (QKLVFFAEDV; PEPTIDE (1)..(10) Abeta 15-24 or APP 770(Q686-V695); listed as Homo sapiens) [compound 30] |  |  |  |  | 0.043 | 0.055 | 0.062 | 0.059 | 0 | 0 | 0 | 0 | 0 | 0 | 0 | 0 | 0 | 0 | 0 | 0 | Epitope mapping, fine specificity analysis, serum of subject P204 [3]: 0; Epitope mapping, fine specificity analysis, serum of subject P205 [3]: 0; Epitope mapping, fine specificity analysis, serum of subject P206 [3]: 0; Epitope mapping, fine specificity analysis, serum of subject P207 [3]: 0; Epitope mapping, fine specificity analysis, serum of subject P208 [3]: 0; Epitope mapping, fine specificity analysis, serum of subject P209 [3]: 0; Epitope mapping, fine specificity analysis, serum of subject P210 [3]: 0 |
